Numbers after ± are expanded uncertainties.
Details: Liquid, Vibrating wire viscometry

Work on `FC(F)(F)/C=C/Cl` [(E)-1-chloro-3,3,3-trifluoroprop-1-ene] yielded a viscosity (243.14 K, 5000 kPa) of 0.5536 ± 0.012 mPa·s, a viscosity (243.15 K, 200 kPa) of 0.5325 ± 0.012 mPa·s and a viscosity (243.15 K, 1000 kPa) of 0.542 ± 0.012 mPa·s. The viscosity (243.15 K, 10000 kPa) was 0.5859 ± 0.013 mPa·s, the viscosity (243.15 K, 20000 kPa) was 0.6281 ± 0.014 mPa·s and the viscosity (243.15 K, 30000 kPa) was 0.6899 ± 0.015 mPa·s. For the same compound, the viscosity (243.15 K, 40000 kPa) was 0.7324 ± 0.016 mPa·s, the viscosity (253.14 K, 20000 kPa) was 0.5583 ± 0.013 mPa·s and the viscosity (253.15 K, 200 kPa) was 0.4733 ± 0.011 mPa·s. For the same compound, the viscosity (253.15 K, 1000 kPa) was 0.4782 ± 0.011 mPa·s, the viscosity (253.15 K, 5000 kPa) was 0.4887 ± 0.011 mPa·s and the viscosity (253.15 K, 10000 kPa) was 0.5179 ± 0.012 mPa·s. It also gave a viscosity (253.15 K, 30000 kPa) of 0.6008 ± 0.013 mPa·s, a viscosity (253.15 K, 40000 kPa) of 0.6521 ± 0.014 mPa·s and a viscosity (263.14 K, 200 kPa) of 0.4168 ± 0.0097 mPa·s. It also gave a viscosity (263.15 K, 1000 kPa) of 0.4194 ± 0.0098 mPa·s, a viscosity (263.15 K, 5000 kPa) of 0.433 ± 0.01 mPa·s and a viscosity (263.15 K, 10000 kPa) of 0.455 ± 0.01 mPa·s. It also gave a viscosity (263.15 K, 20000 kPa) of 0.4998 ± 0.011 mPa·s, a viscosity (263.15 K, 30000 kPa) of 0.539 ± 0.012 mPa·s and a viscosity (263.16 K, 40000 kPa) of 0.5767 ± 0.013 mPa·s. The viscosity (273.14 K, 30000 kPa) was 0.4792 ± 0.011 mPa·s, the viscosity (273.15 K, 200 kPa) was 0.3733 ± 0.0089 mPa·s and the viscosity (273.15 K, 1000 kPa) was 0.3741 ± 0.0089 mPa·s. It also gave a viscosity (273.15 K, 5000 kPa) of 0.3892 ± 0.0092 mPa·s, a viscosity (273.15 K, 10000 kPa) of 0.4091 ± 0.0096 mPa·s and a viscosity (273.15 K, 20000 kPa) of 0.4448 ± 0.01 mPa·s. For the same compound, the viscosity (273.15 K, 40000 kPa) was 0.5197 ± 0.012 mPa·s, the viscosity (283.14 K, 200 kPa) was 0.3347 ± 0.0082 mPa·s and the viscosity (283.14 K, 10000 kPa) was 0.3688 ± 0.0088 mPa·s. For the same compound, the viscosity (283.15 K, 1000 kPa) was 0.3363 ± 0.0082 mPa·s, the viscosity (283.15 K, 5000 kPa) was 0.351 ± 0.0085 mPa·s and the viscosity (283.15 K, 20000 kPa) was 0.4033 ± 0.0095 mPa·s. It also gave a viscosity (283.15 K, 30000 kPa) of 0.4368 ± 0.01 mPa·s, a viscosity (283.15 K, 40000 kPa) of 0.4708 ± 0.011 mPa·s and a viscosity (293.14 K, 20000 kPa) of 0.3656 ± 0.0088 mPa·s. For the same compound, the viscosity (293.14 K, 40000 kPa) was 0.428 ± 0.0099 mPa·s, the viscosity (293.15 K, 200 kPa) was 0.3004 ± 0.0076 mPa·s and the viscosity (293.15 K, 1000 kPa) was 0.3033 ± 0.0076 mPa·s. It also gave a viscosity (293.15 K, 5000 kPa) of 0.316 ± 0.0079 mPa·s, a viscosity (293.15 K, 10000 kPa) of 0.3332 ± 0.0082 mPa·s and a viscosity (293.15 K, 30000 kPa) of 0.3971 ± 0.0094 mPa·s. The viscosity (303.15 K, 200 kPa) was 0.2719 ± 0.0071 mPa·s, the viscosity (303.15 K, 1000 kPa) was 0.2743 ± 0.0071 mPa·s and the viscosity (303.15 K, 5000 kPa) was 0.2874 ± 0.0073 mPa·s. For the same compound, the viscosity (303.15 K, 10000 kPa) was 0.3033 ± 0.0076 mPa·s.

— the NIST ThermoML archive (doi:10.1016/j.jct.2018.04.001)
